In patent US8563580B2, “Flavivirus inhibitors and methods for their use” (Georgetown University, priority 2008, dated 2013):

Assays:
WNV protease = test: High Throughput Screen (HTS) protease assay; format: biochemical, West Nile virus (EG101 strain); conditions: 100 nl of 5 mg/ml compound in DMSO per 30.1 μl well; substrate Boc-Gly-Lys-Arg-AMC 50 μM; DMSO controls = 100% activity
Experimental: Procedures for expression and purification of WNV (EG101 strain) were similar to those described elsewhere by Mueller et al., Int. J. Biochem. Cell. Biol., 39: 606-14 (2007). Briefly, E. coli Top10 F′ cells (Invitrogen, Carlsbad, Calif.) were transformed with the protease expression plasmid. Cells were grown at 37° C. until the OD600 was ˜0.5. Cells were then induced with isopropyl-1-thio-β-D-galactopyranoside (American Bioanalytical, Natick, Mass.) (0.5 mM), and incubated for 4 h at 37° C. Cells were harvested by centrifugation (5000×g) for 15 min at 4° C., washed once with a buffer containing 50 mM Tris-HCl, pH 7.5, and 200 mM NaCl, centrifuged at 5000×g for 15 min at 4° C., and stored at -80° C. until used.
Proteases were purified by suspending bacterial pellets in 50 mM Hepes, pH 7.0, 500 mM NaCl, (buffer A) with 0.05 mg/ml lysozyme. Cells were incubated for 30 min on ice after addition of 10% stock solution of Triton X-100 (final concentration of 0.5%). Cells were disrupted by sonication for 2 min and the soluble fraction was collected after centrifugation (15,000×g) for 30 min at 4° C. The soluble fraction was incubated for 1 h at 4° C. with Talon resin (BD Bioscience, San Jose, Calif.) which was pre-equilibrated in buffer A. The affinity resin was centrifuged at (400×g) for 10 min at 4° C., washed three times with buffer A, and packed into a column. Washing of the column was continued with the buffer A containing 10 mM imidazole, followed by elution of the protease with buffer A containing 150 mM imidazole. The protease was concentrated and further purified by Sephadex G-75 gel filtration chromatography. The purified protease fractions were pooled and dialyzed against a buffer containing 50 mM Tris-HCl pH 7.5 and 300 mM NaCl (4×1 L). Aliquots (100 μl) were frozen at −80° C.
The protease assay (100 μl) described by Mueller et al., Int. J. Biochem. Cell. Biol. 39: 606-14 (2007) was adapted for a 384-well plate format (30.1 μl). Microtiter plates were loaded sequentially with 14 μl of the reaction buffer containing 200 mM Tris-HCl, pH 9.5, and 30% glycerol (TG buffer) using an automated Wellmate (Matrix, Hudson, N.H.) and 6 μl of WNV protease (0.05 μM) (as prepared above) in TG buffer containing 15 mM NaCl (3 mM final concentration). Plates were then centrifuged at 1000×g for 3 min at room temperature to mix samples and pool liquids at the bottom of the wells. Inhibitor compounds (100 nl of 5 mg/ml in dimethyl sulfoxide; DMSO) were added to each well in duplicate by a pin-transfer mechanism of a robotic delivery system. The final inhibitor concentrations in the assays varied due to different molecular weights of the compounds from the libraries that were screened. Plates were incubated at room temperature to allow for formation of protease/inhibitor complexes. The fluorogenic substrate, t-butyl-oxycarbonyl(Boc)-Gly-Lys-Arg-7-amino-4-methyl coumarin (AMC) (10 μl in TG buffer; 50 μM final concentration in the reaction mixture), was added using the Wellmate, and the plates were centrifuged for 3 min at 1000×g and incubated at room temperature for 15 min. Fluorescence was measured at excitation and emission wavelengths of 385 nm and 465 nm, respectively, on a Perkin-Elmer (Waltham, Mass.) spectrofluorometer. To validate the assay conditions, aprotinin (bovine pancreatic trypsin inhibitor, BPTI) was used as a positive control. Assay mixtures containing DMSO were used as negative controls. The average of fluorescence values in duplicate wells for a given compound was used to determine the percent activity by taking the values obtained with DMSO controls as 100%. Compounds 1-11, 18-32, and 37-101 above were identified. […] Compounds 12-17 are compounds related to those identified in the HTS screen that also show significant WNV protease inhibition, i.e., >95%.

[1] = system: Dengue 2 replicon expressing BHK cells; test: Replicon inhibition assay (Renilla luciferase), Dengue 2 replicon expressing BHK cells; format: cell-based, Dengue virus (DENV2); conditions: for EC50: Dengue virus; for DENV2 BHK replicon inhibition (FIG. 2): 25 μM final concentration, 24 hours, BHK cells
Experimental: (§1) Baby Hamster Kidney (BHK) and African green monkey kidney epithelial cells (Vero) were cultured in Dulbecco's Modified Eagle Medium (DMEM) (Cellgro®; Mediatech, Inc., Manassas, Va.) supplemented with 10% fetal bovine serum, MEM nonessential amino acid (Cellgro®) (5 ml/liter), and Penicillin-Streptomycin (2.5 ml/liter). Dengue 2 replicon expressing BHK cells and WNV replicon expressing Vero cells were cultured in DMEM as described above containing additionally Geneticin or G418 (Fisher Scientific®, Pittsburgh, Pa.) to maintain the selective pressure of the replicon expressing cells.
(§2) Dengue 2 replicon expressing BHK cells and WNV replicon expressing Vero cells were plated 100 μl into a black 96 well plate (Greiner Bio-One; Monroe, N.C.) with 10^5 cells/ml concentrations. After 6 hours of incubation, 1 μl of each compound diluted in DMSO to 2.5 mM was added into each well to obtain a 25 μM as the final concentration. Cells were incubated at 37° C. in a humidified CO2 (5%) chamber for 24 hours. The media was then removed and the cells are washed with PBS before adding 20 μl of lysis buffer to each well. A Renilla luciferase assay was performed with the addition of 50 μl substrate (Promega Corporation; Madison, Wis.) with a 2 second delay and a 10 second measurement in a Centro LB 960 plate luminescence plate reader (Berthold Technologies; Oak Ridge, Tenn.). The data was analyzed and plotted with GraphPad Prism 5 (GraphPad Software, Inc.; La Jolla, Calif.).
Renilla luciferase activity was measured as described above 24 hours after the addition of the compounds.

[2] = system: WNV replicon expressing Vero cells; test: Replicon inhibition assay (Renilla luciferase), WNV replicon expressing Vero cells; format: cell-based, West Nile virus (WNV); conditions: for WNV replicon inhibition (FIG. 1): 25 μM final concentration, 24 hours, Vero cells; for EC50: West Nile virus, Vero, 24 h
Experimental: as §1, §2
Specifically, the cells were prepared as above and the concentration of the compounds were varied (see Table 2). Renilla luciferase activity was measured as described above 24 hours after the addition of the compounds.

[3] = Cytotoxicity assay (MTT), naïve Vero cells; format: cell-based; conditions: African green monkey, 18 hours incubation
Experimental: as §1
(§3) Naïve Vero cells were cultured in the presence of varying concentrations of the Compound 33, Compound 34, and Compound 35 to calculate CC50 values. In the same way, Compound 33, Compound 34, Compound 35, and Compound 36 were tested in BHK cells. Naïve BHK and Vero cells were prepared in 96-well plates as described above at various final concentrations. After 18 hours of incubation, 10 μl of MTT reagent (Chemicon; Temecula, Calif.) is added into each well. The cells were incubated for 2 hours before adding 100 μl of detergent and were read in a spectrophotometer as described in the manufacturer's protocol.

[4] = Cytotoxicity assay (MTT), naïve BHK cells; format: cell-based; conditions: hamster, 18 hours incubation
Experimental: as §1, §3

SMILES	% Inhibition (reduction in protease activity) (WNV protease)	other results
Oc1c(C(Nc2nc3ccccc3s2)c2ccccc2)ccc2cccnc12 (stereo not drawn) [Compound 13]	>95%	EC50 ([1]; DENV2, BHK): ~7.5 µM
Oc1ccccc1C(Nc1nc2ccccc2s1)c1ccc2cccnc2c1O (stereo not drawn) [Compound 16]	>95%	EC50 ([1]; DENV2, BHK): ~4.5 µM
Oc1c(C(Nc2nccs2)c2cccc(OCc3ccccc3)c2)ccc2cccnc12 (stereo not drawn) [Compound 17]	>95%	EC50 ([1]; DENV2, BHK): ~8.3 µM
Oc1c(CN2CCOCC2)ccc2cccnc12 [Compound 33]		WNV replicon inhibition (FIG. 1) [2]: inhibitory; EC50 [2]: 7.96 µM; DENV2 BHK replicon inhibition (FIG. 2) [1]: inhibitory; EC50 ([1]; BHK, 24 h): 10.6 µM
Oc1c(CN2CCOCC2)cc(Cl)c2cccnc12 [Compound 34]		CC50 at 18 h [3]: 355 µM; WNV replicon inhibition (FIG. 1) [2]: inhibitory; EC50 [2]: 14.3 µM; CC50 at 18 h [4]: 170 µM; DENV2 BHK replicon inhibition (FIG. 2) [1]: inhibitory; EC50 ([1]; BHK, 24 h): 35 µM
CCN(CC)Cc1cc(Cl)c2cccnc2c1O [Compound 35]		CC50 at 18 h [3]: 60.9 µM; WNV replicon inhibition (FIG. 1) [2]: inhibitory; EC50 [2]: 3.38 µM; CC50 at 18 h [4]: 70.1 µM; DENV2 BHK replicon inhibition (FIG. 2) [1]: inhibitory; EC50 ([1]; BHK, 24 h): 2.35 µM
Oc1c(CN2CCOCC2)cc(Cl)c2c1NCCC2 [Compound 36]		CC50 at 18 h [4]: 220 µM; DENV2 BHK replicon inhibition (FIG. 2) [1]: inhibitory; EC50 ([1]; BHK, 24 h): 63.1 µM
O=C(CCc1ccccc1)Nc1nnc(SCc2ccc(F)cc2)s1 [Compound 69]	61%	
COc1ccc(Cl)cc1NC(=O)c1cc(-c2ccco2)on1 [Compound 70]	60%	
O=C(CCC(=O)c1ccc(Cl)cc1)Nc1c(F)cccc1F [Compound 71]	59%	
Nc1sc2c(c1C(=O)NCCc1ccccc1)CCC2 [Compound 72]	59%	
Cc1ccc(NC(=O)c2cnn(-c3ccccc3)c2NC(=O)c2ccco2)cc1 [Compound 73]	58%	
O=C(/C=C/c1ccccc1)Nc1c2c(nn1-c1ccccc1)CSC2 [Compound 74]	57%	
O=C(c1cc(Br)cc2c1OCC2)N1CCOCC1 [Compound 75]	57%	
CCC(C(=O)Nc1c2c(nn1-c1ccc(F)cc1)CSC2)c1ccccc1 (stereo not drawn) [Compound 76]	57%	
Cc1ccc(CNC(=O)Cc2ccc(-n3cccc3)cc2)cc1 [Compound 77]	56%	
COc1ccc(NC(=O)C(NC(=O)Cc2cccs2)c2ccccc2)cc1 (stereo not drawn) [Compound 78]	56%	
CC1=Nc2ccccc2N=C(NC(=O)CSc2nnnn2-c2ccccc2)C1c1ccccc1 (stereo not drawn) [Compound 79]	56%	

SMILES	% Inhibition (reduction in protease activity) (WNV protease)	other results
Cc1ccc(/N=C2\NC(=O)C(CC(=O)Nc3ccc(OC(F)(F)F)cc3)S2)cc1 (stereo not drawn) [Compound 81]	55%	
O=C(Nc1ccc(Cl)cc1)Oc1ccccc1N1CCSCC1 [Compound 82]	55%	
CCOC(=O)c1c(CC(C)C)csc1NC(=O)Cc1ccccc1 [Compound 83]	54%	
Cc1nnc(NC(=O)CSc2cn(Cc3ccccc3)c3ccccc23)s1 [Compound 84]	54%	
Cc1ccc(NC(=O)c2cc(-c3ccc(O)cc3)on2)cc1 [Compound 85]	54%	
CCn1c2ccccc2c2nnc(SCC(=O)Nc3ccc(S(N)(=O)=O)cc3)nc21 [Compound 86]	54%	
CCc1ccc(-c2cc(C(=O)Nc3ccc(S(=O)(=O)NC(C)=O)cc3)c3ccccc3n2)cc1 [Compound 87]	54%	
Cc1cc(NC(=O)CSc2ccccn2)no1 [Compound 88]	54%	
O=C(NCc1csc2ccccc12)c1cc(F)cc2c1OCOC2 [Compound 89]	53%	
CC(C)c1ccc(NC(=O)CSC(=O)c2ccccc2)cc1 [Compound 92]	52%	
COc1cccc(CNC(=O)c2[nH]c(C)c(C(=O)NC3CCCCC3)c2C)c1 [Compound 93]	52%	
O=C(CSc1oc(-c2cccs2)nc1S(=O)(=O)c1ccccc1)NC1CCCCC1 [Compound 95]	52%	
CCCCC1CCC(C(=O)Nc2c3c(nn2-c2ccccc2C)C[S+]([O-])C3)CC1 (stereo not drawn) [Compound 96]	51%	
N#CCC(=O)Nc1ccc(Oc2ccccc2)cc1 [Compound 97]	51%	
Cc1ccc(-c2noc(CCC(=O)NCC3CCN(Cc4cccc(C)c4)CC3)n2)cc1 [Compound 98]	51%	
O=C(Nc1nc(SCc2ccc(F)cc2)ns1)c1cccs1 [Compound 99]	50%	
CCc1ccccc1NC(=O)Cn1cccc1C1=NC(c2ccccc2)CO1 (stereo not drawn) [Compound 100]	50%	
Cc1ccc(-n2nc3c(c2NC(=O)CCC2CCCC2)CSC3)cc1 [Compound 101]	50%	
